Data on 25 compounds can be found in ChEMBL document CHEMBL1201862, “PubChem BioAssay data set” (2004).

Calls of active or inactive are those of the source. Bounds are passed on as bounds.

Targets include Cytochrome P450 2C9 (Homo sapiens, UniProt P11712); Cytochrome P450 3A4 (Homo sapiens, UniProt P08684); Cytochrome P450 2D6 (Homo sapiens, UniProt P10635).
For data set [1], the target named is T1, Endoribonuclease toxin MazF (Escherichia coli K-12, UniProt P0AE70).
T1 sequence (P0AE70 whole entry): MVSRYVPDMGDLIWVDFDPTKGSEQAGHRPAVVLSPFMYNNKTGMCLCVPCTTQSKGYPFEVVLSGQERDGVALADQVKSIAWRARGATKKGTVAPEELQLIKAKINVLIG
The data set is described as follows: activation of MazEF endoribonuclease cleavage – biochemical, fluorescence, single-stranded RNA substrate, uHTS hits, dose response (AID 588481). The class given is functional.

In data set [2] the target is T1, Endoribonuclease toxin MazF. As to the kind of experiment: substrate-only fluorescence increase artefacts – biochemical, single-stranded RNase substrate, counter-screen for MazEF activator project, dose response (AID 588502). The class given is functional.
A further data set relates to H9c2. The data set is described as follows: cells. It is filed as functional, cell-based. Conditions: Rattus norvegicus, H9c2, Myocardium.
The nature of data set [3]: Luminescence Cell-Based Dose Retest to Confirm Inhibitors of Cancer Stem Cells. [Related pubchem assays (depositor defined):AID2717, AID2721]. The class given is functional. Conditions: Homo sapiens.
In the next data set the test system is HEK293. The data set is described as follows: EBV LMP1 TES2 canonical NF-kB signalling blockers – cell-based, HEK293, luciferase, cherry-pick, dose response (AID 588343). Conditions: Homo sapiens. It is filed as functional.
A short description of data set [4]: intracellular Trypanosoma cruzi inhibitors in host cells – cell-based, plate reader, cherry-pick samples, set 3, dose response (AID 651818).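 Further: compounds incubated with infected cells for about four days.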 It is filed as functional.
A further data set addresses T2, Cytochrome P450 1A2 (Homo sapiens, UniProt P05177).
T2 sequence (P05177 whole entry): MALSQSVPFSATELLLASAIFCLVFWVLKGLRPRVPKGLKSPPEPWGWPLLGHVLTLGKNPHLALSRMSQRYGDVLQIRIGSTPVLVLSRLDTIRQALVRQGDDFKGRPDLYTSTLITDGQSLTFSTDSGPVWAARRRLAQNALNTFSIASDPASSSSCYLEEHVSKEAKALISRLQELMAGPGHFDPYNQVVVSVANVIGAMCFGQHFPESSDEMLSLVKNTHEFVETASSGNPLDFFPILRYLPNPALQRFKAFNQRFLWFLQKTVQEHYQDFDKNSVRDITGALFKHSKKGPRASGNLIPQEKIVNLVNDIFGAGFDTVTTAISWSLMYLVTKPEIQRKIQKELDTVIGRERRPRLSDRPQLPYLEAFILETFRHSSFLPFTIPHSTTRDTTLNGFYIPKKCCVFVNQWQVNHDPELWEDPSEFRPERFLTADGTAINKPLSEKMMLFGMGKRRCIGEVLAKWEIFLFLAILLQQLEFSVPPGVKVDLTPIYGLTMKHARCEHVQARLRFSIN

The target in data set [5] is T3, Heat shock factor protein 1 (Mus musculus, UniProt P38532).
T3 sequence (P38532 whole entry): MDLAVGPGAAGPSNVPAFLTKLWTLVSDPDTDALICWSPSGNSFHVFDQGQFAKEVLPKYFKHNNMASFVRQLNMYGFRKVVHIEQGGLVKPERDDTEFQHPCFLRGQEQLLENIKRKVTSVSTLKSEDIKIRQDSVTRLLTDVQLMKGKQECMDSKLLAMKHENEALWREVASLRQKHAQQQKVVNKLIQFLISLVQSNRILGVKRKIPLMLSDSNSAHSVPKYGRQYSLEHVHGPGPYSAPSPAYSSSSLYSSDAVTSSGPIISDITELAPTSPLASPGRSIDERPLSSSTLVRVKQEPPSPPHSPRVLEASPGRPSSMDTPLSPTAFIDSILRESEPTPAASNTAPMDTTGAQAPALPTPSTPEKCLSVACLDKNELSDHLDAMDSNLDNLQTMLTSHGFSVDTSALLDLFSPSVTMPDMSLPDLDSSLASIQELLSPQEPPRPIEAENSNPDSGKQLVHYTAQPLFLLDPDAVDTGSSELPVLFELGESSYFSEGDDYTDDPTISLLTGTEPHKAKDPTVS
The data set is described as follows: decrease of HSF1-responsive luciferase luminescence – cell-based, NIH3T3, dose retest, confirmation (AID 2382).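 Further: NIH3T3 fibroblasts with HSF1-driven luciferase reporter stressed by proteasome inhibitor MG132; luminescence from HSF1-driven luciferase expression after 8 hours of MG132 stress.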 The class given is functional.

Data set [6] has as its target T4, High affinity choline transporter 1 (Homo sapiens, UniProt Q9GZV3).
T4 sequence (Q9GZV3 whole entry): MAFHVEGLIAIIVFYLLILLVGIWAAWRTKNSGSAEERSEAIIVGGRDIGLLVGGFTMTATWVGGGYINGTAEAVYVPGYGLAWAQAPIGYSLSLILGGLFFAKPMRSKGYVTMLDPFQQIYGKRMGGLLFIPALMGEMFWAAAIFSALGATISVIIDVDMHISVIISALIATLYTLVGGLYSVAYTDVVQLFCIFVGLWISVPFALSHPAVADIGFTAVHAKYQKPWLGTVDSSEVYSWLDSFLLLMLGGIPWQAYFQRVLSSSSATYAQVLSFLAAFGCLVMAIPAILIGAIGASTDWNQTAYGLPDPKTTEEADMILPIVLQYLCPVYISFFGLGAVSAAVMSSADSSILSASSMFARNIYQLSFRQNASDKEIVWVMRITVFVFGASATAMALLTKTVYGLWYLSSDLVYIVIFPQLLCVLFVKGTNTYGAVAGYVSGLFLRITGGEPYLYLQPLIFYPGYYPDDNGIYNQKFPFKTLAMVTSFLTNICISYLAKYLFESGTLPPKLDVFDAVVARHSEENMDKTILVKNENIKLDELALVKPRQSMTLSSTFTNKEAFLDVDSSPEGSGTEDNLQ
The data set is described as follows: human choline transporter blockers, potency – cell-based, 5-point CRC, membrane potential dye, dose response (AID 504840). It is filed as functional.

In the next data set the target is Cytochrome P450 2C19 (Homo sapiens, UniProt P33261). As to the kind of experiment: Cytochrome panel assay with activity outcomes. Panel member name: p450-cyp2c19 Compounds with AC50 equal or less than 10 uM are considered active. The class given is functional. To be noted: read-out: AC50.
Data set [7] in a line: alpha-synuclein stem-loop luciferase translation blockers – H4 neuroglioma cells, luminescence, confirmation (AID 1988). The class given is functional, cell-based.
A short description of data set [8]: luciferase reporter signal suppression in cells – H4 neuroglioma cells, luminescence, dose response (AID 1990). It is filed as functional, cell-based.
Data set [9] can be described thus: Luminescence Cell-Based Dose Response HTS to Identify Inhibitors of 5'UTR Stem-Loop Driven Prion Protein mRNA Translation in H4 Neuroglioblastoma Cells. [Related pubchem assays: 1827 (Project Summary), 1813 (Primary HTS)]. The class given is functional.

Sequence of Cytochrome P450 3A4 (P08684 whole entry): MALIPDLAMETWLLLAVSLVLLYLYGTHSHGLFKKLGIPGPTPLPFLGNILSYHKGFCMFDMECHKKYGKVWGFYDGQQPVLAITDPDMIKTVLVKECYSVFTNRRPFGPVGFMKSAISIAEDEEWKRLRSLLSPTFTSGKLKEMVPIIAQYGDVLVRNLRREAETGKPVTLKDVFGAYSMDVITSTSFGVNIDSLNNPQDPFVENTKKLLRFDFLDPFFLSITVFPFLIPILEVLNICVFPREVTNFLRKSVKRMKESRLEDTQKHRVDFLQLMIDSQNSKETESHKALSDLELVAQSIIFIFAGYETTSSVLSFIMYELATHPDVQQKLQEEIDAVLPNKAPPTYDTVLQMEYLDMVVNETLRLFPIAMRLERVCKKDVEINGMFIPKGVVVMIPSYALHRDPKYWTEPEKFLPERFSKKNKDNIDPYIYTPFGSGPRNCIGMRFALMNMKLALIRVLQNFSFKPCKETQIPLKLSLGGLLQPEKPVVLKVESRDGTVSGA
Sequence of Cytochrome P450 2C9 (P11712 whole entry): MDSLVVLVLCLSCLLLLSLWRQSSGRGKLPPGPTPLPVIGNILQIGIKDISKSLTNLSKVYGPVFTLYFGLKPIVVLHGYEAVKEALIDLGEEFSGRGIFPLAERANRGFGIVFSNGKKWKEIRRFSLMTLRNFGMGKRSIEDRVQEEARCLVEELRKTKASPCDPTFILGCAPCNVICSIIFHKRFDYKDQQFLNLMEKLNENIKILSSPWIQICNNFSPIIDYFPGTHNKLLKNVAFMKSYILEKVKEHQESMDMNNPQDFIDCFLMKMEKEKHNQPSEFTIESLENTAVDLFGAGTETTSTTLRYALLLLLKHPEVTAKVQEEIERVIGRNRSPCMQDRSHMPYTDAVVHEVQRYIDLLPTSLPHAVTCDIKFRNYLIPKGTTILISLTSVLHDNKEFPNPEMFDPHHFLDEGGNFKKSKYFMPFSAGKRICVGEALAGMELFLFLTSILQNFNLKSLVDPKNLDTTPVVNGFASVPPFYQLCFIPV
Sequence of Cytochrome P450 2D6 (P10635 whole entry): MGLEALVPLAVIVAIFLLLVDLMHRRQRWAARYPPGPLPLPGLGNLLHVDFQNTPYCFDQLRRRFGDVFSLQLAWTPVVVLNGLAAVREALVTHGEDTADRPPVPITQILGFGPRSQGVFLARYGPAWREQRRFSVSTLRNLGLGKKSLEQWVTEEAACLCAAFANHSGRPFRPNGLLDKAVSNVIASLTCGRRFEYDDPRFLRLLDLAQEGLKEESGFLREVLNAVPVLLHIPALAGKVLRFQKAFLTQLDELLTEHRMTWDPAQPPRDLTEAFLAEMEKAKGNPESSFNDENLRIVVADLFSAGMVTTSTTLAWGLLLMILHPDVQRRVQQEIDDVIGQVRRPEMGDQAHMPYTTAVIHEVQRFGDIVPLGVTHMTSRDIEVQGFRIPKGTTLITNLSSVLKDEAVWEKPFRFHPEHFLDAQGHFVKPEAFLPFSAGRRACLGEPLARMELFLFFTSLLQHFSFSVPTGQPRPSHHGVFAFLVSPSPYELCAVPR
Sequence of Cytochrome P450 2C19 (P33261 whole entry): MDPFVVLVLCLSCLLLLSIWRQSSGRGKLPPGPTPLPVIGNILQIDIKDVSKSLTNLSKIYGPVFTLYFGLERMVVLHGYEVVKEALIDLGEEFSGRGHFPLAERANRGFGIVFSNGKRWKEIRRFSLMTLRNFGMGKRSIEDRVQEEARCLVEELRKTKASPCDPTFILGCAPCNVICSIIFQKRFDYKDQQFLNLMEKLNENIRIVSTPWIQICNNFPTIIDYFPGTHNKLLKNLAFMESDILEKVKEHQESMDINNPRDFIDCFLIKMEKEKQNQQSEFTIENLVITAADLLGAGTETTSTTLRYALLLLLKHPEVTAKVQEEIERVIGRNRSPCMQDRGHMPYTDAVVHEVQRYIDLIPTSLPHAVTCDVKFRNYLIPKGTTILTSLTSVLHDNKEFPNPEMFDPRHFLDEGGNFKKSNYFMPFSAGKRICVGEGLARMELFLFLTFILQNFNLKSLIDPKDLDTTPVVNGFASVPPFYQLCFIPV

For the compound `CN(C)/C=c1\sc2c(C#N)cc(C(=O)c3ccc(Br)cc3)n2c1=O`, the EC50 in data set [1] is > 99 µM (inactive); in data set [2], 22.3 µM (inactive). Regarding `CCN(CC)c1ccc(C(=O)NNC(=O)CCc2nc(O)c3ccccc3n2)cc1`, the IC50 with H9c2 is 18 µM (active). Turning to `Cc1ccc(NC(=O)c2[nH]cnc2C(=O)NCCCNC(=O)c2nc[nH]c2C(=O)Nc2ccc(C)cc2)cc1`, in data set [3], the AC50 is 3.39 µM (active). Also, the IC50 in the data set on H9c2 is > 79 µM (inactive). With `CCOc1ccc(OCc2cccc(C(=O)N3CCCC3)c2)cc1`, the AC50 in the data set with HEK293 was 4.43 µM (active). Consider `C[C@@H]1CCCCO[C@@H](CN(C)Cc2ccc(Cl)c(Cl)c2)[C@@H](C)CN([C@H](C)CO)C(=O)c2cc(NS(=O)(=O)c3ccc(Cl)cc3)ccc2O1`, for which the half-maximal activity concentration (AC50) in data set [4] is 6.5 µM (active). As for `Cn1cccc1C(=O)N1CCC2(CC1)CN(C(c1ccccc1)c1ccccc1)C2`, the AC50 on Cytochrome P450 1A2 is 31.6 µM (inconclusive); on Cytochrome P450 2C9, 39.8 µM (inconclusive); on Cytochrome P450 3A4, “inconclusive”.

On to `CNS(=O)(=O)c1ccc2nc(NC(=O)/C=C/c3ccco3)sc2c1`, for which the IC50 in the data set with H9c2 was > 79 µM (inactive). For `C[C@H]1CN([C@@H](C)CO)C(=O)Cc2cc(NC(=O)Nc3ccc(C(F)(F)F)cc3)ccc2O[C@H]1CN(C)Cc1ccc(C(F)(F)F)cc1`, the half-maximal activity concentration (AC50) in data set [4] was 4.47 µM (active). `Cc1c(C(=O)C2=C(O)C(=O)N(CCN3CCOCC3)C2c2ccccn2)cnn1-c1ccccc1` (stereo unspecified): the AC50 in the data set on HEK293 was 2.31 µM (active). Further, the EC50 in data set [5] was 1.29 µM (active).

Consider `Cn1c(/C=C/c2ccccc2[N+](=O)[O-])nc2ccccc2c1=O`, for which the EC50 in data set [1] and in data set [2] was > 99 µM (inactive) in each case.

Take `Cc1noc(C)c1S(=O)(=O)Nc1ccc2c(c1)CC(=O)N([C@H](C)CO)C[C@@H](C)[C@@H](CN(C)Cc1ccc(Cl)c(Cl)c1)O2`: the AC50 in data set [4] was 6.96 µM (active).

With `Cc1ccc(N/C=C2/C(=O)N(c3nccs3)C(=O)c3ccccc32)c(C)c1`, the EC50 in [1] and in [2] was > 99 µM (inactive) each time. For `CCCCN(CCCC)CCNC(=O)c1cn(C)c2ccc(S(=O)(=O)N(C)C3CCCCC3)cc2c1=O`, the IC50 in data set [6] was 15.6 µM (active).

In the case of `O=C(c1ccco1)N1CCC2(CC1)CN(c1ccccn1)C2`, the values for the AC50 on Cytochrome P450 2D6 and on Cytochrome P450 3A4 were 15.8 µM (inconclusive) and “inconclusive”, respectively. Regarding `O=C(O)/C(=C\c1ccccc1)Cc1ccccc1`, the values for the concentration at half-maximal activity (AC50) at Cytochrome P450 2C9 and on Cytochrome P450 3A4 were 3.98 µM (inconclusive) and “inconclusive”, respectively. On to `O=C(Oc1ccccc1)N1CCC2(CC1)CN(c1ccccn1)C2`, for which the half-maximal activity concentration (AC50) entry at Cytochrome P450 3A4 is “inconclusive”. Turning to `CC(=O)Nc1cc(Cl)c(/N=C/c2ccc(O)cc2O)cc1Cl`, the EC50 in data set [1] and in data set [2] was > 99 µM (inactive) each time. As for `CC(=O)c1cccc(NC(=O)Nc2ccc(C(=O)N3CCOCC3)cc2)c1`, in the data set with HEK293, the AC50 was 31.8 µM (active). With `COc1ccccc1Nc1nc2ccc(C)cc2cc1C#N`, the EC50 in data set [1] was > 99 µM (inactive); in [2], 58.3 µM (inactive). Regarding `COC(=O)N1CCC2(CC1)CCN(c1ccccc1)CC2`, the half-maximal activity concentration (AC50) at Cytochrome P450 2C19 was 5.01 µM (inconclusive); at Cytochrome P450 3A4, “inconclusive”. For `COCCn1c(C)cc(C(=O)COC(=O)c2[nH]nc3ccccc23)c1C`, in the data set with HEK293, the concentration at half-maximal activity (AC50) is 2.08 µM (active). Besides, the EC50 in data set [7] is 1.58 µM (active); in [8], 4.23 µM (inconclusive); in data set [9] it was 4.02 µM (active). As to `COc1cc2c(cc1OC)C(/C=C(\O)c1ccc([N+](=O)[O-])c(C)c1)=NCC2`, the EC50 is > 99 µM (inactive) in data set [1] and 43.8 µM (inactive) in data set [2]. `COc1ccc(/C=N/NC(=O)c2cccnc2)cc1CSc1nc2ccccc2s1`: in the data set with H9c2, the 50% inhibitory concentration (IC50) was 21.2 µM (active).

`COc1cc(C(=O)NCC(=O)N/N=C/c2ccc(-c3cccc([N+](=O)[O-])c3)o2)cc(OC)c1OC`: in the data set on H9c2, the half-inhibitory concentration (IC50) is 10.6 µM (active). With `COCC(=O)N1CCC2(CC1)CCN(C(c1ccccc1)c1ccccc1)CC2`, the concentration at half-maximal activity (AC50) result on Cytochrome P450 3A4 was “inconclusive”.
